The values below come from ChEMBL document CHEMBL1131583, “Structure-based design and synthesis of lipophilic 2,4-diamino-6-substituted quinazolines and their evaluation as inhibitors of dihydrofolate reductases and potential antitumor agents” (J Med Chem, 1998).

Data set [1] addresses T1, Dihydrofolate reductase (Lactobacillus casei, UniProt P00381).
Description: Inhibitory activity against Dihydrofolate reductase from Lactobacillus casei (lcDHFR)
Data set [2] addresses T2, Bifunctional dihydrofolate reductase-thymidylate synthase (Toxoplasma gondii, UniProt Q07422).
T2 sequence (Q07422 whole entry): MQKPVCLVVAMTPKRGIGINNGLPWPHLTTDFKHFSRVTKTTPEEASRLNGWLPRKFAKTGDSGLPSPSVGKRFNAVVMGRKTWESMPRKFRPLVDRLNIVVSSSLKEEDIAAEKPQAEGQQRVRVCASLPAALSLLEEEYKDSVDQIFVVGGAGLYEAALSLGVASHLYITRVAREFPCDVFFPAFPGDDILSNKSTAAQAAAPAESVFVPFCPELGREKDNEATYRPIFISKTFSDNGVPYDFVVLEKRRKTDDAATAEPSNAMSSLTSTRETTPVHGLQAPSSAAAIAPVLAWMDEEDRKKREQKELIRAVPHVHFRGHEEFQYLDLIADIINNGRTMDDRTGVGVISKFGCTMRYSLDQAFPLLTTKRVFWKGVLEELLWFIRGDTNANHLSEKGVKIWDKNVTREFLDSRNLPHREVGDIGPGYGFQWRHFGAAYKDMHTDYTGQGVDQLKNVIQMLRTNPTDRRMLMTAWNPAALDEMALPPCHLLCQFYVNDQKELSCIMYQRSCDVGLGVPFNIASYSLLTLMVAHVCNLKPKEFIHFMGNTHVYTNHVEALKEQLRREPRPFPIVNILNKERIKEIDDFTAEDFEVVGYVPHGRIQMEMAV
The data set is described as follows: Inhibition of recombinant Dihydrofolate reductase from Toxoplasma gondii (tgDHFR).

Data set [3] deals with T2, Bifunctional dihydrofolate reductase-thymidylate synthase.
Description: Inhibitory activity against Dihydrofolate reductase from Toxoplasma gondii (tgDHFR)
In data set [4] the target is T3, Dihydrofolate reductase (Homo sapiens, UniProt P00374).
T3 sequence (P00374 whole entry): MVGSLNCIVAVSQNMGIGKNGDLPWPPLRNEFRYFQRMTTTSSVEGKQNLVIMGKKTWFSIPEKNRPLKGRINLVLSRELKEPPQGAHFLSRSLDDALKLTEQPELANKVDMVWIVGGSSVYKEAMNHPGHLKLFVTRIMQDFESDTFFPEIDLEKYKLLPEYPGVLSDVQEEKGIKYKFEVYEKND
Description: Inhibitory activity against Dihydrofolate reductase from recombinant human (hDHFR)

Data set [5] addresses T4, Dihydrofolate reductase (Rattus norvegicus, UniProt Q920D2).
T4 sequence (Q920D2 whole entry): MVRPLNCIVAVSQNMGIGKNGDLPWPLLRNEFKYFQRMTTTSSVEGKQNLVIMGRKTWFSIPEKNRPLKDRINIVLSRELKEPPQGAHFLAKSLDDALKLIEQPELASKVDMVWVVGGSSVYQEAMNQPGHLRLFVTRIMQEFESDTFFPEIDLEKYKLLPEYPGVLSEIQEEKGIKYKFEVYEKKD
The data set is described as follows: Inhibitory activity against Dihydrofolate reductase from rat liver (rlDHFR).

In data set [6] the target is T5, Dihydrofolate reductase (Pneumocystis carinii, UniProt P16184).
T5 sequence (P16184 whole entry): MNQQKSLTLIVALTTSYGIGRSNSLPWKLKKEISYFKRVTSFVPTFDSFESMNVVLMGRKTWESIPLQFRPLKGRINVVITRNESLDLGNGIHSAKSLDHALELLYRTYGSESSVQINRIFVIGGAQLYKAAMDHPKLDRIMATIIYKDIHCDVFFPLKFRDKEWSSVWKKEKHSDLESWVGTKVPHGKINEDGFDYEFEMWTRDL
Description: Inhibitory activity against Dihydrofolate reductase from Pneumocystis carinii (pcDHFR)

The nature of data set [7]: Partition coefficient (logP). It is filed as physicochemical. Particulars: octanol/water.
The target of data set [8] is T2, Bifunctional dihydrofolate reductase-thymidylate synthase. Briefly: Inhibitory activity against recombinant Dihydrofolate reductase from Toxoplasma gondii (tgDHFR).
The target in data set [9] is T1, Dihydrofolate reductase. The data set is described as follows: Inhibitory activity against Dihydrofolate reductase from Lactobacillus casei ( lcDHFR). Also noted: species or system Lacticaseibacillus casei.

T1 sequence (P00381 whole entry): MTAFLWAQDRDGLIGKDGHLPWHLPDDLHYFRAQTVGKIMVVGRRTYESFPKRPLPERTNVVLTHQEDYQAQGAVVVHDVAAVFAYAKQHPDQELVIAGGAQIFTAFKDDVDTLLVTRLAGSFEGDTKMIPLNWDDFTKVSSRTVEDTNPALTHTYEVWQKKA

On to `COc1ccc(CNc2ccc3nc(N)nc(N)c3c2)c(OC)c1OC`, for which the half-maximal inhibitory concentration (IC50) in [1] is 2000 nM; in data set [2] it was 810 nM; in data set [3], 190 nM; in data set [4], 27000 nM; in data set [5], 1300 nM; in data set [6] it was 4900 nM.
As to `COc1cc(OC)c(OC)cc1CNc1ccc2nc(N)nc(N)c2c1`, the IC50 in data set [1] came out at 1600 nM; in [2], 540 nM; in data set [3] it was 124 nM; in [5], 1600 nM; in data set [6], 5400 nM.
For the molecule `COc1ccc(OC)c(CN(C)c2cnc3nc(N)nc(N)c3c2)c1`, in data set [7], the logP was found to be 1.87.
In the case of `COc1cc(OC)c(CNc2ccc3nc(N)nc(N)c3c2)c(OC)c1`, the IC50 was determined as 37000 nM in [1], 25000 nM in [4], 22700 nM in data set [5] and 116000 nM in data set [6].
Regarding `COc1cc(CNc2ccc3nc(N)nc(N)c3c2)cc(OC)c1OC`, the IC50 in data set [1] came out at 2800 nM; in [2] it was 920 nM; in data set [3], 84 nM; in data set [4], 23000 nM; in [5], 900 nM; in data set [6] it was 6800 nM.
Regarding `COc1ccc(OC)c(CNc2cnc3nc(N)nc(N)c3c2)c1`, in data set [7], the logP came to 1.32.
The same measure, in the same setting: next, `COc1cc(CN(C)c2cnc3nc(N)nc(N)c3c2)cc(OC)c1`: 1.87.
As to `COc1cc(NCc2ccc3nc(N)nc(N)c3c2C)cc(OC)c1OC` [TRIMETREXATE], half-maximal inhibition in [1] (IC50) required 260 nM.
With `Nc1nc(N)c2cc(NCc3ccccc3)ccc2n1`, the IC50 in data set [8] came to 1400 nM; in data set [1], 2700 nM; in data set [3], 320 nM; in data set [4], 2400 nM; in data set [5] it was 660 nM; in data set [6] it was 8700 nM.
As to `COc1ccc(OC)c(CN(C)c2ccc3nc(N)nc(N)c3c2)c1`, the IC50 in [2] was determined as 3.9 nM; in [3] it was 30 nM; in [6] it was 87 nM; in data set [9], 130 nM.
For `COc1ccc(CN(C)c2ccc3nc(N)nc(N)c3c2)c(OC)c1`, the half-inhibitory concentration (IC50) in data set [1] turned out to be 120 nM; in data set [2] it was 3.9 nM; in data set [3] it was 39 nM; in data set [4], 50 nM; in data set [5], 43 nM; in [6] it was 100 nM.
On to `COc1cc(CN(C)c2ccc3nc(N)nc(N)c3c2)cc(OC)c1`, for which the IC50 worked out at 4.7 nM in data set [2]; 9.3 nM in [3]; 11 nM in data set [4]; 8.2 nM in [5]; 23.8 nM in [6]; 37 nM in data set [9].
`COc1ccc(OC)c(CNc2ccc3nc(N)nc(N)c3c2)c1`: the half-maximal inhibitory concentration (IC50) in [1] is 3000 nM; in data set [2] it was 1100 nM; in data set [3], 160 nM; in data set [4], 28000 nM; in data set [5], 1100 nM; in data set [6], 4600 nM.
With `COc1ccc(CN(C)c2ccc3nc(N)nc(N)c3c2)c(OC)c1OC`, the IC50 in [1] came to 59 nM; in [2], 5.4 nM; in [3], 17 nM; in data set [4] it was 140 nM; in data set [5], 19 nM; in data set [6], 52 nM.
In the case of `COc1cc(CNc2cnc3nc(N)nc(N)c3c2)cc(OC)c1OC`, the lipophilicity (logP) in [7] was determined as 0.89. Further, in data set [3], the concentration for half-maximal inhibition (IC50) came to 395 nM.
On to `COc1ccc(CNc2ccc3nc(N)nc(N)c3c2)c(OC)c1`, for which the IC50 in data set [1] stood at 2100 nM; in data set [2], 780 nM; in [3] it was 170 nM; in [5] it was 1200 nM; in [6] it was 4400 nM.
As for `CN(Cc1cccc2c1CCCC2)c1ccc2nc(N)nc(N)c2c1`, the IC50 in data set [1] amounted to 21 nM; in data set [4] it was 27 nM; in data set [5], 17 nM; in data set [6] it was 17 nM.
As to `COc1cc(CNc2ccc3nc(N)nc(N)c3c2)cc(OC)c1`, the IC50 in data set [1] was determined as 2300 nM; in [2], 840 nM; in [3], 120 nM; in [4], 28000 nM; in [5], 840 nM; in [6] it was 2200 nM.

The term IC50 denotes the concentration at which inhibition is half-maximal. As usually defined, the logP is the decadic logarithm of the partition coefficient of the neutral form, usually between octanol and water.
